Source: patent publication US20220257704A1, “COMBINATION OF CHEMOTHERAPY WITH RECOMBINANT S. ROLFSII LECTIN” (Unichem Laboratories Ltd, priority 2018, published 2022)
pIC50: −log10 of the molar value. Where two headings read alike, the source gives them in different places.

What was measured:
Assay in all cases: MTT cytotoxicity assay, 48 h, alone and in combination (IC50 and Combination Index)
Assay type in all cases: cell-based
[1] = system: PANC-1 cell line; settings: Homo sapiens, read-out: IC50 of Gemcitabine
Protocol: The cytotoxic effect on each combination was determined by MTT assay.
(§1) Combination Index (CI) values were determined for each drug concentration combination. The CI values were calculated based on the IC50 values using the formula as given in below.

[2] = system: T24 cell line; settings: for pIC50: Homo sapiens, read-out: IC50 of Gemcitabine
Protocol: (§2) The cell were kept in contact with the recombinant lectin of SEQ ID NO: 1 and the chemotherapy agent for 48 h and the cytotoxic effect (percentage cytotoxicity) was measured. The cytotoxic effect was determined by well-known colorimetric MTT assay (Mossman, T. 1983 Rapid colorimetric assay for cellular growth and survival: application to proliferation and cytotoxicity assays Journal of Immunological Methods, volume 65, pages 55-63) for assessing cell metabolic activity.
(§3) Based on percentage cytotoxicity data, IC50 values were determined using the software GraphPad Prism version 4.01.
as §1
(§4) A study was performed to determine the effect of the concentration of the recombinant lectin represented by SEQ ID NO: 1 on the IC50 of Cisplatin for cytotoxicity in T24 cells. Conversely the effect of the concentration of Cisplatin on the IC50 of the recombinant lectin represented by SEQ ID NO: 1.
Similarly another study was performed for Gemcitabine in combination with the recombinant lectin of SEQ ID NO: 1.
This was performed using the same techniques as in Example 1-1.
In a further study, T24 cells were treated with Cisplatin (1 μM-500 μM) in combination with SEQ ID NO: 1(2.5 μg/mL-80 μg/mL) for 48 h. Similarly another set of cells were treated with Gemcitabine (1 μM-300 μM) in combination with SEQ ID NO: 1 (2.5 μg/mL-80 μg/mL). Combination Index values were determined for each drug combination and resultant antagonistic, additive or synergistic effect was determined, as described in Example 1-2.

[3] = system: HT-29 cell line; settings: Homo sapiens, read-out: IC50 of Irinotecan
[4] = system: PA-1 cell line; settings: for pIC50: Homo sapiens, read-out: IC50 of Paclitaxel
Protocol: In a further study, PA-1 cells were treated with Cisplatin(0.01 μM-5 μM) in combination with SEQ ID NO: 1(1 μg/mL-20 μg/mL) for 48 h. Similarly another set of cells were treated with Paclitaxel (0.01 nM-5 nM) in combination with SEQ ID NO: 1 (1 μg/mL-20 μg/mL).

[5] = system: MDA-MB-231 cell line; settings: Homo sapiens, read-out: IC50 of Paclitaxel
Protocol: as §2, §3, §1
as §4, with “Paclitaxel” for “Cisplatin”, “MDA-MB-231” for “T24”
Similarly another study was performed for Carboplatin in combination with the recombinant lectin of SEQ ID NO: 1.
In a further study, MDA-MB-231 cells were treated with Paclitaxel (0.001 nM-10 nM) in combination with SEQ ID NO: 1(2.5 μg/mL-80 μg/mL) for 48 h. Similarly another set of cells were treated with Carboplatin (10 μM-1000 μM) in combination with SEQ ID NO: 1 (2.5 μg/mL-80 μg/mL).

Work on Nc1ccn([C@@H]2O[C@H](CO)[C@@H](O)C2(F)F)c(=O)n1 [Gemcitabine, reference compound] yielded a pIC50 ([1]; PANC-1, SEQ ID NO: 1 at 0 μg/mL) of 5.13, a pIC50 ([1]; PANC-1, SEQ ID NO: 1 at 5 μg/mL) of 4.97 and a pIC50 ([1]; PANC-1, SEQ ID NO: 1 at 10 μg/mL) of 5.52. It also gave a pIC50 ([1]; PANC-1, SEQ ID NO: 1 at 20 μg/mL) of 7.41, a pIC50 ([1]; PANC-1, SEQ ID NO: 1 at 40 μg/mL) of 7.42 and a pIC50 ([1]; PANC-1, SEQ ID NO: 1 at 80 μg/mL) of 4.97. For the same compound, the pIC50 ([1]; PANC-1, SEQ ID NO: 1 at […]) was 4.80, the “Conc. of other therapeutic agents showing synergistic effect” value ([2]; Gemcitabine with SEQ ID NO: 1, paired with SEQ ID NO: 1 conc.) was 1 to 300 µM and the pIC50 ([2]; T-24, SEQ ID NO: 1 at 0 μg/mL) was 4.81. For the same compound, the pIC50 ([2]; T-24, SEQ ID NO: 1 at 5 μg/mL) was 6.85, the pIC50 ([2]; T-24, SEQ ID NO: 1 at 10 μg/mL) was 9.49 and the pIC50 ([2]; T-24, SEQ ID NO: 1 at 20 μg/mL) was 10.70. For the same compound, the pIC50 ([2]; T-24, SEQ ID NO: 1 at […]) was 6.10.

CCc1c2c(nc3ccc(OC(=O)N4CCC(N5CCCCC5)CC4)cc13)-c1cc3c(c(=O)n1C2)COC(=O)[C@]3(O)CC [Irinotecan, reference compound] gave a pIC50 ([3]; HT-29, SEQ ID NO: 1 at 0 μg/mL) of 4.79, a pIC50 ([3]; HT-29, SEQ ID NO: 1 at 1 μg/mL) of 4.31 and a pIC50 ([3]; HT-29, SEQ ID NO: 1 at 5 μg/mL) of 5.56. For the same compound, the pIC50 ([3]; HT-29, SEQ ID NO: 1 at 10 μg/mL) was 5.26, the pIC50 ([3]; HT-29, SEQ ID NO: 1 at 20 μg/mL) was 5.87 and the pIC50 ([3]; HT-29, SEQ ID NO: 1 at 40 μg/mL) was 6.56. It also gave a pIC50 ([3]; HT-29, SEQ ID NO: 1 at 80 μg/mL) of 6.78.

CC(=O)O[C@H]1C(=O)[C@@]2(C)[C@H]([C@H](OC(=O)c3ccccc3)[C@]3(O)C[C@H](OC(=O)[C@H](O)[C@@H](NC(=O)c4ccccc4)c4ccccc4)C(C)=C1C3(C)C)[C@]1(OC(C)=O)CO[C@@H]1C[C@@H]2O [Paclitaxel, reference compound] gave a pIC50 ([4]; PA-1, SEQ ID NO: 1 at 0 μg/mL) of 8.39, a pIC50 ([4]; PA-1, SEQ ID NO: 1 at 1 μg/mL) of 8.44 and a pIC50 ([4]; PA-1, SEQ ID NO: 1 at 5 μg/mL) of 9.65. For the same compound, the pIC50 ([4]; PA-1, SEQ ID NO: 1 at […]) was 8.46, the “Conc. of other therapeutic agents showing synergistic effect” value ([4]; Paclitaxel with SEQ ID NO: 1, paired with SEQ ID NO: 1 conc.) was 0.25 to 5 nM and the pIC50 ([5]; MDA-MB-231, SEQ ID NO: 1 at 0 μg/mL) was 8.79. It also gave a pIC50 ([5]; MDA-MB-231, SEQ ID NO: 1 at 5 μg/mL) of 8.03, a pIC50 ([5]; MDA-MB-231, SEQ ID NO: 1 at 10 μg/mL) of 9.41 and a pIC50 ([5]; MDA-MB-231, SEQ ID NO: 1 at 20 μg/mL) of 9.91. The pIC50 ([5]; MDA-MB-231, SEQ ID NO: 1 at […]) was 8.40.
